# Measurements reported in patent publication US11077090B2, “Compounds and compositions and uses thereof” (Sunovion Pharmaceuticals Inc., priority 2016, dated 2021).
# Like-named read-outs stand apart in the source and are kept apart here.
# System: compound-treated mice
# Test: Neuropharmacological assay (SmartCube): behavioral activity signature and minimal effective dose
# Type: in vivo
# Details: for minimal effective dose: Mus musculus, ip; for AD: ADHD (probability of activity signature) / AG: analgesic (probability of activity signature) / AX: anxiolytic (probability of activity signature) / CE: cognitive enhancer (probability of activity signature) / DP: anti-depressant (probability of activity signature) / MS: mood stabilizer (probability of activity signature) / PS: anti-psychotic (probability of activity signature) / SD: sedative hypnotic (probability of activity signature) / UN: uncharacterized CNS activity (probability of activity signature): i.p. 15 min before test, most efficacious dose(s)
# Procedure, shortened: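 Mice dosed i.p. 15 min before test, compound in N-methyl-2-pyrrolidone/PEG/propylene glycol, 3 doses; video-captured behavior matched to reference-drug signatures, giving per-class probabilities at most efficacious dose. MED from doses typically 0.3–30 mpk, defined as lowest dose with ≥50% total activity.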
# [1] = MED = dose having 50% or more total activity, read-out: Potency: minimal effective dose (MED)
# [2] = MED = dose having 50% or more total activity, read-out: Potency: minimal effective dose (MED), binned
Structure (SMILES),minimal effective dose [1],AD: ADHD (probability of activity signature),AG: analgesic (probability of activity signature),AX: anxiolytic (probability of activity signature),CE: cognitive enhancer (probability of activity signature),DP: anti-depressant (probability of activity signature),MS: mood stabilizer (probability of activity signature),PS: anti-psychotic (probability of activity signature),SD: sedative hypnotic (probability of activity signature),UN: uncharacterized CNS activity (probability of activity signature),minimal effective dose [2],"Potency: minimal effective dose (MED), binned (MED = dose having 50% or more total activity)"
"Cc1ccc2c(c1)[C@H](N)[C@H](C)OC2.Cl (relative stereo) [Example 76, cis-3,6-Dimethylisochroman-4-amine hydrochloride]",< 3 mg/kg,+ (LOQ ≤ + <5%),++ (5% ≤ ++ <25%),++ (5% ≤ ++ <25%),++ (5% ≤ ++ <25%),++ (5% ≤ ++ <25%),+ (LOQ ≤ + <5%),++ (5% ≤ ++ <25%),+ (LOQ ≤ + <5%),+++ (25% ≤ +++ <50%),–,–
Cc1cccc2c1CO[C@@H](C)[C@H]2N.Cl [Example 97],3 to 10 mg/kg,+ (LOQ ≤ + <5%),+ (LOQ ≤ + <5%),++ (5% ≤ ++ <25%),++ (5% ≤ ++ <25%),+ (LOQ ≤ + <5%),+ (LOQ ≤ + <5%),++ (5% ≤ ++ <25%),++ (5% ≤ ++ <25%),++++ (50% ≤ ++++),–,–
"CC[C@@H]1OCc2cccc(Cl)c2[C@@H]1N (single isomer, unassigned) [Example 218]",–,+ (LOQ ≤ + <5%),+ (LOQ ≤ + <5%),++ (5% ≤ ++ <25%),++ (5% ≤ ++ <25%),+ (LOQ ≤ + <5%),+ (LOQ ≤ + <5%),++ (5% ≤ ++ <25%),+ (LOQ ≤ + <5%),++++ (50% ≤ ++++),< 3 mg/kg,–
C[C@@H]1OCc2cccc(Cl)c2[C@@H]1N.Cl [Example 80],< 3 mg/kg,+ (LOQ ≤ + <5%),++ (5% ≤ ++ <25%),+++ (25% ≤ +++ <50%),+ (LOQ ≤ + <5%),+ (LOQ ≤ + <5%),+ (LOQ ≤ + <5%),++ (5% ≤ ++ <25%),++ (5% ≤ ++ <25%),+++ (25% ≤ +++ <50%),–,–
CCc1ccc2c(c1)[C@H](N)[C@H](C)OC2.Cl [Example 219],–,+ (LOQ ≤ + <5%),++ (5% ≤ ++ <25%),++ (5% ≤ ++ <25%),++ (5% ≤ ++ <25%),+ (LOQ ≤ + <5%),+ (LOQ ≤ + <5%),+ (LOQ ≤ + <5%),+ (LOQ ≤ + <5%),++++ (50% ≤ ++++),3 to 10 mg/kg,–
"N[C@H]1COCc2ccccc21 (single isomer, unassigned) [Example 112]",10 to 30 mg/kg,+ (LOQ ≤ + <5%),++ (5% ≤ ++ <25%),++ (5% ≤ ++ <25%),+++ (25% ≤ +++ <50%),++ (5% ≤ ++ <25%),+ (LOQ ≤ + <5%),++ (5% ≤ ++ <25%),+ (LOQ ≤ + <5%),+ (LOQ ≤ + <5%),–,–
CN[C@H]1COCc2cccc(Cl)c21 [Example 146],3 to 10 mg/kg,+ (LOQ ≤ + <5%),++ (5% ≤ ++ <25%),+++ (25% ≤ +++ <50%),++ (5% ≤ ++ <25%),+ (LOQ ≤ + <5%),+ (LOQ ≤ + <5%),+ (LOQ ≤ + <5%),+ (LOQ ≤ + <5%),++ (5% ≤ ++ <25%),–,–
C[C@H]1OCc2cccc(Cl)c2[C@@H]1N.Cl [Example 81],< 3 mg/kg,+ (LOQ ≤ + <5%),++ (5% ≤ ++ <25%),+++ (25% ≤ +++ <50%),++ (5% ≤ ++ <25%),++ (5% ≤ ++ <25%),+ (LOQ ≤ + <5%),++ (5% ≤ ++ <25%),++ (5% ≤ ++ <25%),+++ (25% ≤ +++ <50%),–,–
"CN[C@H]1COCc2cccc(C)c21 (single isomer, unassigned) [Example 138]",3 to 10 mg/kg,+ (LOQ ≤ + <5%),++ (5% ≤ ++ <25%),++ (5% ≤ ++ <25%),++ (5% ≤ ++ <25%),++ (5% ≤ ++ <25%),+ (LOQ ≤ + <5%),++ (5% ≤ ++ <25%),++ (5% ≤ ++ <25%),+++ (25% ≤ +++ <50%),–,–
C[C@H]1OC[C@@H](N)c2cc(Cl)ccc21.Cl [Example 203],–,+ (LOQ ≤ + <5%),++ (5% ≤ ++ <25%),++ (5% ≤ ++ <25%),++ (5% ≤ ++ <25%),++ (5% ≤ ++ <25%),+ (LOQ ≤ + <5%),+++ (25% ≤ +++ <50%),++ (5% ≤ ++ <25%),++++ (50% ≤ ++++),3 to 10 mg/kg,–
CC[C@@H]1OCc2ccc(F)cc2[C@H]1N [Example 182],–,+ (LOQ ≤ + <5%),+ (LOQ ≤ + <5%),++ (5% ≤ ++ <25%),++ (5% ≤ ++ <25%),++ (5% ≤ ++ <25%),+ (LOQ ≤ + <5%),+++ (25% ≤ +++ <50%),+ (LOQ ≤ + <5%),++++ (50% ≤ ++++),< 3 mg/kg,–
CC[C@H]1OCc2ccccc2[C@@H]1NC.Cl [Example 259],–,+ (LOQ ≤ + <5%),+ (LOQ ≤ + <5%),+ (LOQ ≤ + <5%),+ (LOQ ≤ + <5%),++ (5% ≤ ++ <25%),+ (LOQ ≤ + <5%),+ (LOQ ≤ + <5%),+++ (25% ≤ +++ <50%),++ (5% ≤ ++ <25%),10 to 30 mg/kg,–
C[C@@H]1OCc2c(F)cccc2[C@@H]1N.Cl [Example 215],–,+ (LOQ ≤ + <5%),++ (5% ≤ ++ <25%),+++ (25% ≤ +++ <50%),++ (5% ≤ ++ <25%),++ (5% ≤ ++ <25%),+ (LOQ ≤ + <5%),++ (5% ≤ ++ <25%),++ (5% ≤ ++ <25%),++++ (50% ≤ ++++),3 to 10 mg/kg,–
"Cl.N[C@H]1c2ccccc2CO[C@H]1CF (relative stereo) [Example 275, cis-3-(fluoromethyl)isochroman-4-amine hydrochloride]",–,+ (LOQ ≤ + <5%),+ (LOQ ≤ + <5%),+ (LOQ ≤ + <5%),+ (LOQ ≤ + <5%),+ (LOQ ≤ + <5%),++ (5% ≤ ++ <25%),+ (LOQ ≤ + <5%),+++ (25% ≤ +++ <50%),++ (5% ≤ ++ <25%),3 to 10 mg/kg,–
"Cl.NC1COCc2ccc3c(c21)C1CCC3C1 (single isomer, unassigned) [Example 164]",–,+ (LOQ ≤ + <5%),++ (5% ≤ ++ <25%),+++ (25% ≤ +++ <50%),++ (5% ≤ ++ <25%),+ (LOQ ≤ + <5%),+ (LOQ ≤ + <5%),++ (5% ≤ ++ <25%),++ (5% ≤ ++ <25%),+++ (25% ≤ +++ <50%),–,B (>3 to 10 mpk)
